# Reference: paper PMC7440915, “Discovery of surrogate agonists for visceral fat Treg cells that modulate metabolic indices in vivo” (eLife, 2020)
# Where no end group is shown, it is not given here.
# Tested on: vTreg53 Treg cells and VAT immunocytes
# Assay: Immunocyte composition of spleen and VAT in HFD-fed mice after vTreg53 Treg transfer and immunization
# Type: in vivo, mouse
# Excerpt: Figure 6. Immunization with Fat1562 expands transferred vTreg53 Treg cells and suppresses HFD-induced VAT inflammation. (A) Scheme of the transfer and immunization protocol. (B) Frequencies of CD45.2^+ cells in Treg cells (n ≥ 7). (C) Frequencies of clonotype^+ cells in transferred CD45.2^+ Treg cells (n ≥ 7). (D) Number of clonotype^+ CD45.2^+ Treg cells in the spleen (n ≥ 7). (E) Number of clonotype^+ CD45.2^+ Treg cells in the VAT (n ≥ 7). (F) Number of total Treg cells in the spleen (n ≥ 7). (G) Number of total Treg cells in VAT (n ≥ 7). (H) Numbers of eosinophils and CD11c^hi inflammatory macrophages in VAT (n ≥ 7). Data are mean ± SD. Data shown are representative of at least two independent experiments. Figure 6—figure supplement 1. Gating strategy. Gating strategy used for detection of VAT Treg cells (top) and, eosinophils or macrophage cells (bottom) by flow cytometry. [drawing 6] TEXT PRINTED IN THE PICTURE: (B) adjuvant: Spl: 0.3 (Gated on Tregs); VAT: 4 (Gated on Tregs) | (B) adjuvant/ Fat1562: Spl: 1.2 (Gated on Tregs); VAT: 53.4 (Gated on Tregs) | (C) adjuvant: Spl: 62.3 (Gated on CD45.2^+ Tregs); VAT: 94.1 (Gated on CD45.2^+ Tregs) | (C) adjuvant/ Fat1562: Spl: 94.1 (Gated on CD45.2^+ Tregs); VAT: 97.8 (Gated on CD45.2^+ Tregs) | (H) adjuvant: 9.3 (Gated on CD45.1^+); 46.3 (Gated on CD45.1^+); 41.3 (Gated on F4/80^+) | (H) adjuvant/ Fat1562: 14.5 (Gated on CD45.1^+); 39.6 (Gated on CD45.1^+); 22.6 (Gated on F4/80^+) DOUBTS OF THE COPYIST ABOUT THIS PICTURE: All values are gate numbers printed inside flow cytometry plots; no measure or unit is printed beside them, so it is uncertain whether they count as results for a substance / 'adjuvant' is the control treatment and 'adjuvant/Fat1562' the test treatment; these are treatment groups, not single compounds / Panel B, adjuvant, VAT: printed as 4, a decimal may be hidden
# Mice were asphyxiated with CO2. Epididymal VAT was excised, minced and digested for 20 min with 1.5 mg/ml collagenase type II (Sigma) in Dulbecco’s Modified Eagle’s Medium (DMEM) supplemented with 2% fetal calf serum (FCS) in a 37°C water bath with shaking. The digested materials were filtered through a sieve and then a 40 µm nylon cell strainer. The stromal vascular fraction was collected after centrifugation at 450 g for 10 min. For surface markers, cells were stained with anti-CD45.1 (A20), -CD45.2 (104), -CD3 (17A2), -CD4 (GK1.5), -TCR Vα2 (B20.1), -CD44 (IM7), -CD62L (MEL-14), -CD45 (30-F11), -CD11b (M1/70), -CD11c (N418), -F4/80 (BM8) mAbs (all from Biolegend), and anti-TCR Vβ4 (KT4), anti-Siglec-F (E50-2440) mAbs (both from BD Biosciences), as detailed in experiment descriptions. Foxp3 staining was performed using the Foxp3/Transcription Factor Staining Buffer Set and anti-Foxp3 (FJK-16s) mAb (both from eBioscience). Cells were acquired with an LSRII flow cytometer (BD Biosciences), an Accuri (BD Biosciences) or Cytoflex (Beckman Coulter). Propidium Iodide was used to distinguish live from dead cells. Assays were performed in biological duplicates or triplicates as described in the figure legends. Data were analyzed using FlowJo.
# To assess early Treg proliferation following peptide stimulation in vivo, 0.4 million Treg cells were sorted from pooled Spl and LNs of 6-8wk-old male CD45.2^+ Tg^+ Foxp3-GFP^KI/y mice by Moflo, labeled by the CellTrace Violet dye (ThermoFisher Scientific), and were i.v.-injected into 6-8wk old male B6.CD45.1^+ mice. The next day, the recipient mice were injected with 200 µg peptides emulsified in CFA (CFA/peptides) s.c. on the lower back. Proliferation of clonotype^+ Tregs in the spleen was determined three days later. To examine the expansion of VAT-Treg cells by peptide immunization, we sorted 0.4 million Treg cells from pooled Spl/LNs of 6-8wk-old male CD45.2^+ Tg^+ Foxp3-GFP^KI/y mice and transferred them i.v. into 6-8wk old male B6.CD45.1^+ mice. […]
sequence,measurement,setting,value
TMYKNPRPMAATG [Fat1562],VAT inflammation,,reduced VAT inflammation
same,expansion of adoptively transferred vTreg53 cells,,significant expansion
same,"clonotype^+ TCR-tg Treg cells, share of entire VAT-Treg pool","VAT, n ≥ 7",almost half
same,frequency of CD11c^hi pro-inflammatory macrophages in VAT,"VAT, n ≥ 7",reducing the frequency of CD11c^hi pro-inflammatory macrophages
same,proportion of eosinophils in VAT,"VAT, n ≥ 7",significantly increased the proportion of eosinophils
same,total number of VAT Treg cells,"VAT, n ≥ 7",significantly elevated
same,"donor-derived cells, share of total Treg pool in spleen","spleen, immunization with Fat1562",less than 2%
same,total number of splenic Treg cells,"spleen, n ≥ 7",did not show a significant increase
